The text below walks through data of US4457864A, “Synthetic analogues of α-melanotropin” (University Patents, Inc., priority 1981, dated 1984).

The conditions of series [1]: literature reports, cited from earlier work.
The conditions of series [2]: cited from earlier work.
Series [3] relates to amphibian melanophores. The settings on record: Sawyer et al.; cited from earlier work.
Series [4] concerns adenylate cyclase in Cloudman S-91 mouse melanoma tumors. As to conditions: Sawyer et al.; cited from earlier work.
A short description of series [5]: resistance to serum proteolytic enzyme degradation, residual activity by in vitro frog skin bioassay. The class given is in vitro ADME. The settings on record: 10 nM peptide, 37° C., Ham's F-10 with 10% horse serum and 2% fetal calf serum, up to 72 hours; FIG. 3. As to the method:
Synthetic α-MSH, [Nle^4 ]-α-MSH and [Nle^4, D-Phe^7 ]-α-MSH were incubated (37° C.) under sterile conditions in Corning flasks containing Ham's F-10 media containing 10% horse serum and 2% fetal calf serum. Samples of the media containing the peptides (10 nM) were removed at time zero and at 24, 48 and 72 hours. The samples were immediately frozen and assayed for biological activity using the in vitro frog skin bioassay.

In series [6] the test system is frog (Rana pipiens). The series is described as follows: in vivo skin darkening (reflectance) in frogs after a single subcutaneous injection. The text has this:
(§1) [Nle^4, D-Phe^7 ]-α-MSH was examined for its biological effects on melanosome dispersion in vivo, using the frog (Rana pipiens), and the lizard (Anolis carolinensis). See, Hadley, et al. Science, 213, pp. 1025-1027 (1981).
Frogs of both sexes were placed in white plastic containers with a small amount of water under overhead illumi-nation. Under these conditions, the animals became light green in color, presumably because they were not releasing any endogenous α-MSH. Forty-eight hours later, light reflectance from the dorsal surface of the animals was measured with a Photovolt reflectometer. At this time, the frogs were injected subcutaneously with Ringer solution (controls) or Ringer solutions containing α-MSH, [Nle^4 ]-α-MSH, or [Nle^4, D-Phe^7 ]-α-MSH (100 μl of a 10^-4 M solution per 10 g of body weight) to provide a final body concentration of approximately 18 μg/10 g. Subsequent reflectance values were taken at 2- to 3-day intervals for 6 weeks.

Series [7] has as its system lizard (Anolis carolinensis). In words: in vivo skin darkening in lizards after a single injection. As to conditions: 18 μg/10 g final body concentration.
From the text: as §1

Series [8] relates to adenylate cyclase in Cloudman S-91 mouse melanoma tumors. In words: melanoma adenylate cyclase activity in vitro ([α-32P]ATP conversion to [32P]cAMP). It counts as biochemical. The method, then: (§2) The relative effects of α-MSH, [Nle^4 ]-α-MSH and [Nle^4, D-Phe^7 ]-α-MSH on mammalian melanoma adenylate cyclase activity in vitro were determined by assaying [^α-32 P] ATP conversion to [^32 P]cAMP in Cloudman S-91 mouse melanoma tumors as described in Sawyer, et al., supra. [^32 P]cAMP was isolated, purified and dectected according to Salomon et al., Anal. Biochem., 58, pp. 541-48 (1974).

For series [9], the system named is Cloudman S-91 NCTC 3960 (CCL 53.1) melanoma cells. The series is described as follows: tyrosinase activity of melanoma cells in tissue culture (3H2O release from [3H]tyrosine). It counts as cell-based, mouse. As to conditions: 0.1 μM melanotropin, exposure 0.5, 4 and 8 hr, then 24 hr with [3H]tyrosine; FIG. 2. The method, then:
Cloudman S-91 NCTC 3960 (CCL 53.1) melanoma cells were obtained from the American Type Culture Collection Cell Repository and were grown and maintained as described in Fuller, et. al. Pigment Cell, 4 pp. 97-104 (1979). Melanoma cells (2×10^5) were seeded in 25 cm^2 flasks and allowed to attach overnight. At time t=0, the medium in all the flasks was replaced with 4 ml of medium containing 0.1 μM melanotropin (i.e., α-MSH, [Nle^4 ]-α-MSH, or [Nle^4, D-Phe^7 ]-α-MSH) or a control medium containing no melanotropin. At selected time intervals (t=0.5, 4, and 8 hr.) the control medium and melanotropin-containing medium was removed. The cells were carefully rinsed three times with fresh melanotropin-free medium and then exposed to fresh melanotropinfree medium containing [^3 H]-tyrosine (specific activity 48 Ci/mmol; 1 Ci=3.7×10^10 becquerels) at 1 μCi/ml. After 24 hr, this medium was removed and the tyrosinase activity of the melanoma cells was determined by assaying for the ^3 H2 O released from the [^3 H]tyrosine by the action of tyrosinase.
Tyrosinase activities are expressed as percent activity of control cells (i.e., cells not exposed to melanotropin). Each bar represents the mean of four determinations ±SEM.

The subject of series [10] is frog (Rana pipiens) skin melanophores. The series is described as follows: in vitro frog skin bioassay, duration of melanosome dispersion. It counts as cell-based. As to the method:
Variation in biological effects of α-MSH analogues are generally discussed in terms of "potentiation" (increased activity relative to naturally-occurring α-MSH) and "prolongation". Such effects are measured by the classic frog skin bioassay system. See, Shizume, et al., Endocrinology, 54, 553-560 (1954). Because α-MSH has an extremely short half-life in serum (about 2 minutes), synthetic analogues having greater serum stability in addition to greater potency and prolongation characteristics have been sought.
[Nle^4, D-Phe^7 ]-α-MSH was examined with respect to the duration of its ability to stimulate melanosome dispersion in vitro using the frog (Rana pipiens) skin bioassay as described in Shizume, Endocrinology 54, 553-560 (1954).

Series [11] deals with adenylate cyclase in Cloudman S-91 mouse melanoma tumors. The series is described as follows: retention of adenylate cyclase activity after iodination. The class given is biochemical. The settings on record: iodinated through use of lacto peroxidase or iodogen. The method, then: as §2
The procedures of Hunter, et al., Nature, 194, pp. 495-496 (1962) were applied to [Nle^4, D-Phe^7 ]-α-MSH and the resultant compound was tested for adenylate cyclase activity as in Example 2.

For series [12] the following is noted: cited from earlier work. The source holds these as a separate data set.
Where [13] appears, read: s.c., 18 μg/10 g, single injection.

Entries after “also recorded” stand apart in the source; their conditions may differ. Where two headings read alike, the source gives them in different places. Some results are limits rather than exact numbers.

Turning to [D-Ser^1]-α-MSH, the “potency / activity relative to the natural hormone” value in [1] was “diminished potency”; in series [1] (listed as D-Ser^1), “no more active than the native hormone”.
Turning to [D-Tyr^2 ]-α-MSH, the “potency / activity relative to the natural hormone” value in series [1] is on record as “significantly less potent; also recorded: diminished potency”.
For [Nle^4 ]-α-MSH, in series [2] (after chloramine-T, further contact with sodium iodide), the “biological activity upon subsequent exposure to sodium iodide” value is reported as “inactivated; also recorded: loses activity”. In addition, the “biological activity after chloramine-T treatment” value in series [2] (chloramine-T, oxidant used in peptide iodination) is on record as “resistant to inactivation; also recorded: retains activity”. The “potency in dispersing amphibian melanophores relative to α-MSH” value in series [3] was “approximately twice as potent”. The “potency in stimulating melanoma adenylate cyclase activity relative to α-MSH” value in series [4] is “approximately twice as potent”. In series [5], the “loss of biological activity on incubation in serum-containing medium” value is on record as “lost essentially all biological activity”. Further, in series [6] (setting [13]), the “duration of darkening effect compared with α-MSH” value is recorded as “effective for only a slightly longer period than α-MSH”.
Regarding [Nle^4, D-Phe^7 ]-α-MSH, the “duration of prolonged skin darkening” value in series [7] is “about 3 days”. For the same substance, the “maximal adenylate cyclase activity compared with α-MSH and [Nle4]-α-MSH” value in [8] (FIG. 1) is reported as “same maximal adenylate cyclase activity”. For the same substance, the “potency in stimulating adenylate cyclase relative to the native hormone (α-MSH)” value in series [8] (dose-response curves of FIG. 1, Cloudman S-91 mouse melanoma) is 26 times. The “tyrosinase activity compared with α-MSH and [Nle4]-α-MSH” value in [9] was “much more active”. Also, the “duration of melanosome dispersion in vitro” value in series [10] was “"prolonged" biological effect superior to α-MSH and [Nle^4 ]-α-MSH”. Further, in [5], the “loss of biological activity on incubation in serum-containing medium” value is listed as “almost totally resistant to loss of biological activity”. The “degree of skin darkening in vivo” value in series [6] (s.c., 18 μg/10 g final body concentration) is “Maximum darkening”. The “skin darkening remaining at 6 weeks” value in [6] (s.c., 18 μg/10 g, 6 weeks after single injection) is reported as “half-maximum darkening”. For the same substance, the “darkening effect of lower dose compared with higher dose” value in series [6] (single injection, 0.18 μg/10 g versus 18 μg/10 g final body concentration) is recorded as “nearly as effective as the higher dose”. Further, the “adenylate cyclase activity after iodination” value in series [11] is “fully retained its activity”.
Take α-Melanotropin [α-MSH]: in series [2] (iodination for radiolabelling), the “biological activity upon oxidative iodination” value is reported as “essentially inactivated; also recorded: loses biological activity”. Further, the half-life in serum result in [12] is “about 2 minutes”. The “time by which the darkening effect was totally lost” value in series [6] (setting [13]) is not above 2 days.
